The record followed here is US20260000692A1, “Substituted N-(Pyridin-2-yl)Acetamide Derivatives as CDK12/13 Inhibitors” (Aurigene Oncology Limited, priority 2022, published 2026).

For orientation: IC50 means the concentration that gives 50% inhibition. What is called inhibition is how much of the control response was suppressed.

For the experiment, the target named is CDK12 (Homo sapiens, UniProt Q9NYV4). The experiment in a line: Biochemical assay for CDK12 (LANCE TR-FRET, IC50 determination). As to conditions: for IC50: CDK12, IC50 class, read-out: IC50 μM (in range); for inhibition at 10 µM: compound at 10 μM, read-out: CDK12 % Inhibition @ 10 μM; for inhibition at 2 µM: compound at 2 μM (stated in the cell, not the 10 μM of the column head). The method, boiled down:
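30 nM CDK12 phosphorylated 100 nM ULight-4E-BP1 (Thr37/Thr46) peptide at 100 µM ATP, as printed, in HEPES pH 7.5 buffer with MgCl2 and DTT. Compound and enzyme were preincubated 60 min, then reacted 60 min at room temperature before stopping with EDTA and Eu anti-phospho antibody. TR-FRET 665/615 ratio gave sigmoidal IC50 fits.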

Chain of CDK12 (Q9NYV4 whole entry): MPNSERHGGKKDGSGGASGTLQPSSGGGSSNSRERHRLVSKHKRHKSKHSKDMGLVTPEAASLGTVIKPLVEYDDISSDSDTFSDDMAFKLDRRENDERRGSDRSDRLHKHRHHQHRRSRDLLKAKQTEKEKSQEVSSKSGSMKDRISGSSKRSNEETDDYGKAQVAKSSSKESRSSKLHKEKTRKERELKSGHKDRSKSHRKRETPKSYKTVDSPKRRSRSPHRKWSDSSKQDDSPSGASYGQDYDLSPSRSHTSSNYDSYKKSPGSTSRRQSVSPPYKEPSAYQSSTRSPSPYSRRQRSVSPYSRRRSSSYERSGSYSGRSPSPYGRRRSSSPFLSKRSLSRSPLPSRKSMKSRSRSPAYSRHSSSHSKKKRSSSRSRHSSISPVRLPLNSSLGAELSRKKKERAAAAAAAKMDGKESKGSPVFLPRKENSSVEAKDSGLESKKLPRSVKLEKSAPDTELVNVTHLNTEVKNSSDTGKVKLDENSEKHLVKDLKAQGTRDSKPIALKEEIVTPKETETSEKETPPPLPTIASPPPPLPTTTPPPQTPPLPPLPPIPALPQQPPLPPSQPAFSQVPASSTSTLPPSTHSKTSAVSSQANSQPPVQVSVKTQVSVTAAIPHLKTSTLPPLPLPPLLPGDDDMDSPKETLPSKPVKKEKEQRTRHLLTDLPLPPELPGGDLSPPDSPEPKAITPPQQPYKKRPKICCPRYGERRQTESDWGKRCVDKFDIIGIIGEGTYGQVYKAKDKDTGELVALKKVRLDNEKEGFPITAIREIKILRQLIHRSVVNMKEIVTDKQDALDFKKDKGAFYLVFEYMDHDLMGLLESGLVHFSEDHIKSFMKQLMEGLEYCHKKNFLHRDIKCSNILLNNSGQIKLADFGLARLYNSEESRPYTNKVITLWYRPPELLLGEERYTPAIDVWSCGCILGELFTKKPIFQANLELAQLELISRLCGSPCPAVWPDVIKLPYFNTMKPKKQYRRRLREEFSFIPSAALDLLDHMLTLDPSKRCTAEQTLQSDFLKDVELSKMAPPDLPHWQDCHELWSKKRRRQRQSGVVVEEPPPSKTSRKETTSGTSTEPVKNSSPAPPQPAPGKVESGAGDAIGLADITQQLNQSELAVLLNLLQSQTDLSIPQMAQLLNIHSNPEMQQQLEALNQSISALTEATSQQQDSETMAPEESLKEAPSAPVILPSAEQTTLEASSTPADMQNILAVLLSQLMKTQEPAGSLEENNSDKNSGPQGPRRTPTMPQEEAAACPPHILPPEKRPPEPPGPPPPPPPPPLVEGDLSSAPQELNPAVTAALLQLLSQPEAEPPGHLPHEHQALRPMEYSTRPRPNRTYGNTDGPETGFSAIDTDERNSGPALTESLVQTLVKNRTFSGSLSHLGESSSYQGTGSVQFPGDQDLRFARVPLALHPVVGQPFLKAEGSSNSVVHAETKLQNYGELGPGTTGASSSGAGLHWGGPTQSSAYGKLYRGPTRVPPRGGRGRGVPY
Chain of CDK12 (O75909 whole entry partner): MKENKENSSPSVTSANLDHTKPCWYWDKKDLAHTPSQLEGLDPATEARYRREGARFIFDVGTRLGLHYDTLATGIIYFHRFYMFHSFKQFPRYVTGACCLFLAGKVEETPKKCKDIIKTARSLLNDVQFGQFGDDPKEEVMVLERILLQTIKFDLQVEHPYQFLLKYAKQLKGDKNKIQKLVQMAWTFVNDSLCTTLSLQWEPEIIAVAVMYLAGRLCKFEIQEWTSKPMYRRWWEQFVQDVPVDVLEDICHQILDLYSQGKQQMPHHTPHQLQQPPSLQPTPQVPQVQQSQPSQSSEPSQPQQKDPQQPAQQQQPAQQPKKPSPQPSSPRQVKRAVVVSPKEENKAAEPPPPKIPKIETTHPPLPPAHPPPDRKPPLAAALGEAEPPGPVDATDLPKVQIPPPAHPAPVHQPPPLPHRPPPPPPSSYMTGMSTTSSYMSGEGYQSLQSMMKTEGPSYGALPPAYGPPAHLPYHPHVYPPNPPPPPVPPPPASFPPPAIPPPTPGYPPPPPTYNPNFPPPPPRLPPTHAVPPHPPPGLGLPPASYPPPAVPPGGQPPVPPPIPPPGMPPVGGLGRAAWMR

`CNC(=O)[C@H](C)Oc1cc(NC(=O)Cc2cnc(C3CCN(C#N)CC3)c(OC)c2)ncc1Cl` [Compound 128, (S)-2-((5-chloro-2-(2-(6-(1-cyanopiperidin-4-yl)-5-methoxypyridin-3-yl)acetamido)pyridin-4-yl)oxy)-N-methylpropanamide]: the IC50 was less than 0.01 µM and the inhibition at 10 µM worked out at 83%.
Consider `CN1CCC(Oc2cc(NC(=O)Cc3ccc(C4CCN(C#N)CC4)nc3)ncc2Cl)CC1` [Compound 129, N-(5-chloro-4-((1-methylpiperidin-4-yl)oxy)pyridin-2-yl)-2-(6-(1-cyanopiperidin-4-yl)pyridin-3-yl)acetamide], for which the IC50 was in the range of 0.01 to 0.1 µM and the inhibition at 10 µM was 94%.
For `COc1cc(NC(=O)Cc2ccc(-c3ccc(CNC#N)nc3)nc2)ncc1Cl` [Compound 130, N-(5-chloro-4-methoxypyridin-2-yl)-2-(6′-(cyanamidomethyl)-[2,3′-bipyridin]-5-yl)acetamide] the same measures were 0.01 to 0.1 µM and 95%.
Consider `COc1cc(NC(=O)Cc2ccc(-c3ccc(CN(C)C#N)nc3)nc2)ncc1Cl` [Compound 131, N-(5-chloro-4-methoxypyridin-2-yl)-2-(6′-((N-methylcyanamido)methyl)-[2,3′-bipyridin]-5-yl)acetamide], for which the IC50 lay in the range of 0.01 to 0.1 µM and the inhibition at 10 µM came to 93%.
Consider `COc1cc(NC(=O)Cc2ccc(-c3ccc(CN(C#N)C(C)C)nc3)nc2)ncc1Cl` [Compound 132, N-(5-chloro-4-methoxypyridin-2-yl)-2-(6′-((N-isopropylcyanamido)methyl)-[2,3′-bipyridin]-5-yl)acetamide], for which the IC50 was greater than 0.1 µM and the inhibition at 10 µM was 93%.
Consider `COc1cc(NC(=O)Cc2ccc(C34CCN(C#N)CC3C4)nc2)ncc1Cl` (centres unmarked) [Compound 133], for which the IC50 is less than 0.01 µM and the inhibition at 10 µM was determined as 94%.
Take `COc1cc(NC(=O)Cc2ccc(N3CCN(C#N)CC3)nc2)ncc1Cl` [Compound 134, N-(5-chloro-4-methoxypyridin-2-yl)-2-(6-(4-cyanopiperazin-1-yl)pyridin-3-yl)acetamide]: the IC50 was 0.01 to 0.1 µM and the inhibition at 10 µM is 82%.
`CP(C)(=O)c1cc(NC(=O)Cc2ccc(C3=CCCN(C#N)C3)nc2)ncc1Cl` [Compound 135, N-(5-chloro-4-(dimethylphosphoryl)pyridin-2-yl)-2-(1′-cyano-1′,2′,5′,6′-tetrahydro-[2,3′-bipyridin]-5-yl)acetamide]: the IC50 was greater than 0.1 µM and the inhibition at 10 µM was 78%.
Consider `N#CN1CC=C(c2ccc(CC(=O)Nc3cc(OC4CC5(CNC5)C4)c(Cl)cn3)cn2)CC1` [Compound 137, N-(4-((2-azaspiro[3.3]heptan-6-yl)oxy)-5-chloropyridin-2-yl)-2-(1′-cyano-1′,2′,3′,6′-tetrahydro-[2,4′-bipyridin]-5-yl)acetamide], for which the IC50 is 0.01 to 0.1 µM and the inhibition at 10 µM was determined as 89%.
Regarding `CC1(C)CCC(Oc2cc(NC(=O)Cc3ccc(C4=CCN(C#N)CC4)nc3)ncc2Cl)CN1` (centres unmarked) [Compound 138, N-(5-chloro-4-((6,6-dimethylpiperidin-3-yl)oxy)pyridin-2-yl)-2-(1′-cyano-1′,2′,3′,6′-tetrahydro-[2,4′-bipyridin]-5-yl)acetamide], the half-maximal inhibitory concentration (IC50) was greater than 0.1 µM and the inhibition at 10 µM came out at 80%.
For `CC1(C)CC(Oc2cc(NC(=O)Cc3ccc(C4=CCN(C#N)CC4)nc3)ncc2Cl)CCN1` (centres unmarked) [Compound 139, N-(5-chloro-4-((2,2-dimethylpiperidin-4-yl)oxy)pyridin-2-yl)-2-(1′-cyano-1′,2′,3′,6′-tetrahydro-[2,4′-bipyridin]-5-yl)acetamide] the same measures were 0.01 to 0.1 µM and 95%.
On to `COc1cc(NC(=O)Cc2ccc(-c3ccc(C#N)nc3)nc2)ncc1Cl` [Compound 140, N-(5-chloro-4-methoxypyridin-2-yl)-2-(6′-cyano-[2,3′-bipyridin]-5-yl)acetamide], for which the IC50 was greater than 0.1 µM and the inhibition at 10 µM came to 83%.
With `COc1cc(NC(=O)Cc2ccc(-c3cnc(C#N)nc3)nc2)ncc1Cl` [Compound 141, N-(5-chloro-4-methoxypyridin-2-yl)-2-(6-(2-cyanopyrimidin-5-yl)pyridin-3-yl)acetamide], the IC50 is 0.01 to 0.1 µM and the inhibition at 10 µM worked out at 92%.
Consider `COc1cc(NC(=O)Cc2ccc(-c3ccnc(C#N)c3)nc2)ncc1Cl` [Compound 142, N-(5-chloro-4-methoxypyridin-2-yl)-2-(2′-cyano-[2,4′-bipyridin]-5-yl)acetamide], for which the IC50 fell in the range of 0.01 to 0.1 µM.
Regarding `CNC(=O)C(C)Oc1cc(NC(=O)Cc2ccc(-c3ccc(C#N)nc3)nc2)ncc1Cl` (centres unmarked) [Compound 143, 2-((5-chloro-2-(2-(6′-cyano-[2,3′-bipyridin]-5-yl)acetamido)pyridin-4-yl)oxy)-N-methylpropanamide], the IC50 lay in the range of 0.01 to 0.1 µM and the inhibition at 10 µM turned out to be 92%.
For `CNC(=O)C(C)Oc1cc(NC(=O)Cc2ccc(-c3ccnc(C#N)c3)nc2)ncc1Cl` (centres unmarked) [Compound 144, 2-((5-chloro-2-(2-(2′-cyano-[2,4′-bipyridin]-5-yl)acetamido)pyridin-4-yl)oxy)-N-methylpropanamide] the same measures were 0.01 to 0.1 µM and 92%.
`N#Cc1cc(-c2ccc(CC(=O)Nc3cc(O[C@@H]4CCOC4)c(Cl)cn3)cn2)ccn1` [Compound 145, (R)-N-(5-chloro-4-((tetrahydrofuran-3-yl)oxy)pyridin-2-yl)-2-(2′-cyano-[2,4′-bipyridin]-5-yl)acetamide]: the IC50 lay in the range of 0.01 to 0.1 µM and the inhibition at 10 µM worked out at 79%.
With `N#Cc1ccc(-c2ccc(CC(=O)Nc3cc(O[C@@H]4CCOC4)c(Cl)cn3)cn2)cn1` [Compound 146, (R)-N-(5-chloro-4-((tetrahydrofuran-3-yl)oxy)pyridin-2-yl)-2-(6′-cyano-[2,3′-bipyridin]-5-yl)acetamide], the IC50 lay in the range of 0.01 to 0.1 µM and the inhibition at 10 µM was 90%.
As to `CNC(=O)[C@H](C)Oc1cc(NC(=O)Cc2ccc(-c3ccc(C#N)nc3)nc2)ncc1Cl` [Compound 147, (S)-2-((5-chloro-2-(2-(6′-cyano-[2,3′-bipyridin]-5-yl)acetamido)pyridin-4-yl)oxy)-N-methylpropanamide], the IC50 fell in the range of 0.01 to 0.1 µM and the inhibition at 10 µM came out at 89%.
Consider `CNC(=O)[C@H](C)Oc1cc(NC(=O)Cc2ccc(-c3ccnc(C#N)c3)nc2)ncc1Cl` [Compound 148, (S)-2-((5-chloro-2-(2-(2′-cyano-[2,4′-bipyridin]-5-yl)acetamido)pyridin-4-yl)oxy)-N-methylpropanamide], for which the IC50 lay within 0.01 to 0.1 µM and the inhibition at 10 µM is 89%.
With `COc1cc(NC(=O)Cc2ccc(-c3ccc(C#N)c(F)c3)nc2)ncc1Cl` [Compound 149, N-(5-chloro-4-methoxypyridin-2-yl)-2-(6-(4-cyano-3-fluorophenyl)pyridin-3-yl)acetamide], the inhibition at 10 µM is 54%.
With `N#Cc1ncc(-c2ccc(CC(=O)Nc3cc(O[C@@H]4CCOC4)c(Cl)cn3)cn2)cn1` [Compound 150, (R)-N-(5-chloro-4-((tetrahydrofuran-3-yl)oxy)pyridin-2-yl)-2-(6-(2-cyanopyrimidin-5-yl)pyridin-3-yl)acetamide], the IC50 lay in the range of 0.01 to 0.1 µM and the inhibition at 10 µM amounted to 83%.
In the case of `CNC(=O)[C@H](C)Oc1cc(NC(=O)Cc2ccc(-c3cnc(C#N)nc3)nc2)ncc1Cl` [Compound 151, (S)-2-((5-chloro-2-(2-(6-(2-cyanopyrimidin-5-yl)pyridin-3-yl)acetamido)pyridin-4-yl)oxy)-N-methylpropanamide], the IC50 lay within 0.01 to 0.1 µM and the inhibition at 10 µM is 79%.
As to `COc1cc(NC(=O)Cc2ccc(-c3cccc(C#N)n3)cc2)ncc1Cl` [Compound 152, N-(5-chloro-4-methoxypyridin-2-yl)-2-(4-(6-cyanopyridin-2-yl)phenyl)acetamide], the IC50 was greater than 0.1 µM.
As for `COc1cc(NC(=O)Cc2ccc(-c3cccc(C#N)n3)c(F)c2)ncc1Cl` [Compound 153, N-(5-chloro-4-methoxypyridin-2-yl)-2-(4-(6-cyanopyridin-2-yl)-3-fluorophenyl)acetamide], the inhibition at 10 µM came out at 34%.
With `N#Cc1cccc(-c2ccc(CC(=O)Nc3cc(O[C@@H]4CCOC4)c(Cl)cn3)cn2)n1` [Compound 154, (R)-N-(5-chloro-4-((tetrahydrofuran-3-yl)oxy)pyridin-2-yl)-2-(6′-cyano-[2,2′-bipyridin]-5-yl)acetamide], the IC50 was less than 0.01 µM and the inhibition at 10 µM came to 77%.
On to `COc1cc(NC(=O)Cc2ccc(-c3cccc(C#N)n3)nc2)ncc1Cl` [Compound 156, N-(5-chloro-4-methoxypyridin-2-yl)-2-(6′-cyano-[2,2′-bipyridin]-5-yl)acetamide], for which the IC50 was less than 0.01 µM and the inhibition at 10 µM amounted to 80%.
Regarding `COc1cc(NC(=O)Cc2ccc(-c3cncc(C#N)n3)nc2)ncc1Cl` [Compound 157, N-(5-chloro-4-methoxypyridin-2-yl)-2-(6-(6-cyanopyrazin-2-yl)pyridin-3-yl)acetamide], the IC50 is less than 0.01 µM and the inhibition at 10 µM is 84%.
Consider `COc1cc(NC(=O)Cc2ccc(-c3ccc(C)c(C#N)n3)nc2)ncc1Cl` [Compound 158, N-(5-chloro-4-methoxypyridin-2-yl)-2-(6′-cyano-5′-methyl-[2,2′-bipyridin]-5-yl)acetamide], for which the IC50 was greater than 0.1 µM and 2 µM produced 70% inhibition.
Take `COc1cc(NC(=O)Cc2ccc(-c3cc(C)cc(C#N)n3)nc2)ncc1Cl` [Compound 159, N-(5-chloro-4-methoxypyridin-2-yl)-2-(6′-cyano-4′-methyl-[2,2′-bipyridin]-5-yl)acetamide]: the IC50 was 0.01 to 0.1 µM and testing at 2 µM gave an inhibition of 90%.
